Source: patent US10562869B2, “Oxadiazole compounds” (REMYND NV, priority 2014, dated 2020)

How the values were obtained:
db/db mice = assay: In vivo evaluation in db/db mice (type 2 diabetes model); conditions: 15 mg/kg IP, vs vehicle
Description: For in vivo evaluation of compound efficacy, male BKS.Cg-+Leprdb/Leprdb/OlaHsd mice (db/db mice—Harlan) were used. The db/db phenotype results from a mutation in the leptin receptor gene, leading to a splice variant (Chen, Charlat et al. 1996; Lee, Proenca et al. 1996). The development of type 2 diabetes in db/db mice is associated with reduced insulin levels due to progressive β-cell failure following an initial period of hypersecretion of insulin. Since these mice develop type 2 diabetes in a manner related to pathology development in humans, and the model is accepted as in vivo model for evaluation of novel anti-diabetic treatments by the Food and Drug Administration (FDA, US), it is a highly relevant model for testing candidate drugs for efficacy.
Compounds were administered intraperitoneal (IP) or oral (PO) at a dose of maximally 50 mg/kg. Mice were subjected to metabolic analysis weekly or bi-weekly. These tests included but were not limited to determination of fasting (5 hrs) and non-fasting blood glucose levels, plasma insulin levels, % glycated hemoglobin (HbA1c) levels, glucose tolerance test and insulin sensitivity test.

INS-1E cells = assay: Cytokine-induced caspase-3/7 activation in INS-1E cells (beta cell stress/apoptosis model, Caspase-Glo 3/7); type: cell-based; conditions: Rattus norvegicus, cytokine mix (IFN-γ, IL-1β, TNF-α), 24 hours, caspase 3/7 activity, read-out: CYT EC50
Description: The INS-1E cell line, a rat insulinoma cell line, has been characterized extensively. INS-1E cells respond to glucose by secreting insulin and, unlike most other immortalized β-cell lines, they do this in a consistent manner over time. The cells are sensitive to hyperglycemia-, free fatty acid (FFA)-, and cytokine-induced stress. Prolonged stress ultimately leads to induction of apoptotic pathways and, if stress is not counter-acted, to apoptosis. Caspase-3 and -7 play a central role downstream where various apoptotic pathways merge. As such, activation (i.e. cleavage) of these caspases forms a relevant primary read-out to evaluate protective activity of compounds against stress-induced apoptosis.
To evaluate the efficacy of different compounds to prevent induction of apoptosis, an in vitro screen was developed in which INS-1E cells were exposed to a cytokine mix (IFN-γ, 5 ng/ml; IL-1β, 20 pg/ml; TNF-α, 0.25 ng/ml). The degree of induction of apoptosis was evaluated using a substrate for cleaved caspase-3 and -7, i.e. a proluminescent caspase-3/7 DEVD aminoluciferin substrate with a thermostable luciferase (Caspase-Glo® 3/7 assay; Promega, cat. G8092).
On day 0, INS-1E cells were plated in a white-walled 96-well microplate (Greiner, cat. 655098) at 20,000 cells per well in 100 μl complete medium (RPMI containing 11 mM glucose supplemented with 5% FCS, 100 IU/ml penicillin, 100 μg/ml streptomycin, 10 mM HEPES, 1 mM Sodium Pyruvate and 50 μM 2-Mercapto-ethanol). On day 2, 100 μl medium containing cytokines and compound dissolved in DMSO was added to the cells. Wells without cytokines containing DMSO and wells with cytokines and DMSO were included to evaluate the degree of caspase 3/7 activation by the cytokine mix. After 24 hours exposure to cytokines and/or compound, Caspase-Glo® 3/7 reagent was added to the cells and caspase activity was determined by measuring luminescence.
To evaluate compound efficacy, the “toxicity window” was calculated by subtracting caspase activity of wells without stressor from activity of wells with stressor but without compound. The amount of caspase activity in the latter wells was normalized to 1 and used as reference. Subsequently, caspase activity in the wells with stressor and varying concentrations of compound was calculated relative to the wells without compound. Plotting caspase activity vs the log 10 of the concentration of compound permitted calculation of the EC50 values for the compounds which typically lied between 0.0001 and 10 μM. Compounds with an EC50<10 μM were considered active.

M17_3SYN cells = assay: Paraquat-induced cytotoxicity (LDH) in α-synuclein over-expressing M17_3SYN neuroblastoma cells; type: cell-based, human; conditions: Homo sapiens, Neuroblastoma cell, 48 h, toxicity inhibition (LDH) in M17_3SYN cells challenged with 6 mM paraquat, 2 days; read-out: SYN EC50
Procedure, shortened: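 Human BE-M17 neuroblastoma cells stably overexpressing wild-type α-synuclein challenged with paraquat (final 6 mM) for 2 days at 37 °C alongside compounds over a concentration range. Cytotoxicity as LDH released relative to total LDH; EC50 from dose-dependent inhibition curve.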

CSc1ccc(S(=O)(=O)N2CCN(c3nc(C4(c5ccc(F)cc5)CC4)no3)CC2)cc1 [Cmpd110, 1-{3-[1-(4-Fluoro-phenyl)-cyclopropyl]-[1,2,4]oxadiazol-5-yl}-4-(4-methylsulfanyl-benzenesulfonyl)-piperazine]
Plasma insulin levels (db/db mice; after 6 weeks of treatment, FIG. 1C): significantly higher | weight gain (non-fasted body weight) (db/db mice; FIG. 1A): increased | Fasted blood glucose levels (db/db mice; FIG. 1B): significantly lower | EC50 (INS-1E cells): 10 nM | EC50 (M17_3SYN cells): 30 nM
